Laboratory results published in patent US9956199B2, “Chromane-like cyclic prenylflavonoids for the medical intervention in neurological disorders” (priority 2011, dated 2018).
Entries after “also recorded” stand apart in the source; their conditions may differ.

How the values were obtained:
[1] = test system: MEF cells; assay: neurite length and branching in MEF cultures; assay type: cell-based, mouse; details: 10 μM and 100 μM, 7 days
Protocol: Mouse embryonic day 16 forebrain cells were prepared and treated as described in Example 17.
The morphology of MEF cells after a 7 day treatment with retinoic acid/valproic acid or with compound 1a (ENDF1) is illustrated in FIG. 4. Cells were fixed and stained with DCX and Map2ab antibodies as described in Example 18. Three independent experiments were performed and evaluated. Data acquisition was done by using the software Volocity 5.3.1 for measurement and photographical documentation. The following parameters were analyzed: polarity, process, number of branches, number and length of sprouts, neurite-length and growth cone morphology.
For quantitative analysis of neurite length, neurons with long neurites were taken into consideration. […] For quantitative analysis of neurite branching, the branch density (number of branches per 100 μm of neurite length) was counted. For analysis, the DCX staining with DMEM-KO medium was used, since DCX, in contrast to Map2ab, is localized throughout the neurites.

[2] = test system: chicken dorsal root ganglion neurons; assay: neurite outgrowth in primary chicken dorsal root ganglion neurons; assay type: cell-based; details: E8 and E15 DRG neurons, 12 to 24 hours; compound 1a 10 μM, NGF 20 ng/ml; GAP-43 staining
Protocol: Dorsal root ganglion neurons comprise of an axon with two branches and are a good model for neuronal differentiation. Embryonic day 8 and 15 chicken dorsal root ganglions were examined for immunochemical staining with GAP43 after incubation with NGF 20 ng/ml and compound 1a (ENDF1) 10 μM to analyze whether compound 1a alone or in combination with the nerve growth factor enhances neurite outgrowth and branching.
Embryonic day (E) 8 and E15 chicken Dorsal Root Ganglions (DRGs) were prepared as described in: Aigner, 1993; Aigner, 1995. Briefly, foetuses were taken out of the egg, decapitated and the DRGs were targeted from the ventral side. The 10 lumbar region DRGs per foetus were dissected, and a total of 100 DRGs were collected in 10 ml DPBS in a 15 ml Falcon tube. DRGs were centrifuged 120×g for 3 min and then enzymatically treated with 1 ml trypsin 0.5 mg/ml+EDTA 0.22 mg/ml (PAA, Pasching, Austria) for 15 min. Then, 9 ml of DMEM 10% FCS were added to inactivate the trypsin and DRGs were centrifuged 120×g for 5 min. DRGs were resuspended and washed with 5 ml of DMEM 10% FCS, pipetted up and down to dissociate them, centrifuged, resuspended in 5 ml of DMEM 10% FCS and transferred into a 60 mm diameter cell culture dish. […]

[3] = test system: MEF E16 cells; assay: immunocytochemical staining for DCX and Map2ab in MEF cultures (neuronal differentiation); assay type: cell-based, mouse; details: 7 days; for number of DCX positive cells / number of DCX/Map2ab double positive cells: Neurobasal plus 1% FCS, 10 μM; for number of DCX positive cells: FIG. 3A; for number of DCX/Map2ab double positive cells: FIG. 3B
Protocol: Following the results from the Luciferase assay described in Example 17, the inventors examined the ability of compounds according to the invention and reference compounds to promote differentiation of MEF E16 cells, using immunocytochemical staining with DCX and Map2ab antibodies.
Compound 1a at 10 and 100 μM was analyzed for its effect on the expression of the neuronal specific markers DCX and Map2ab using primary fetal mouse brain derived cells stimulated in DMEM-KO media.
Mouse embryonic day 16 forebrain cells were prepared as described in Example 17. Before seeding the cells, glass-coverslips were coated and prepared. Glass-coverslips (13 mm) (Menzel GmbH, Braunschweig, Germany) were incubated in 1 M HCl at 65° C. overnight and stored in isopropanol until further use. Coverslips were put into 24-well test plates and air-dried. Subsequently coverslips were incubated for 1 h with 100 μg/ml Poly-L-ornithin solution at 37° C. After washing three times with sterile water coverslips were incubated with 5 μg/ml Laminin solution for 2 h. Immediately after removal of the Laminin solution cells were seeded (40.000 cells/well) in DMEM-KO plus supplement or in NB-B27 plus 1% FCS medium. One day later, cells had attached to the substrate. Cells were stimulated with the above-mentioned substances (in DMEM-KO plus supplement medium: 10 μM and 100 μM; in NB-B27 plus 1% FCS medium: 10 μM) for 3 or 7 days. In the 7 day group, medium including the substances was replaced after three days. Cultures were maintained at 37° C. in a humidified incubator with 5% CO2.
Cells were fixed with phosphate-buffered 4% paraformaldehyde (Sigma-Aldrich, Taufkirchen, Germany). […] The specimens were incubated overnight at 4° C. with the primary antibodies at the following dilutions in FSGB: rabbit anti Doublecortin (DCX) 1:500 (NEB, Frankfurt, Germany) and mouse anti-Map 2a+2b 1:400 (Sigma-Aldrich, Taufkirchen, Germany). After washing three times with FSGB, cells were incubated with the species-specific secondary antibodies, which were conjugated to fluorochromes, for 2 hours in the dark at room temperature. To remove unbound secondary antibodies, cells were washed again with PBS. Nuclear counterstaining was performed with 4′,6′-diamidino-2-phenylindole dihydrochloride hydrate (DAPI) at […] (Sigma Aldrich, Taufkirchen, Germany). Finally, cells were washed again three times with PBS and mounted on microscope slides using Prolong Antifade reagent (Invitrogen, Oreg., USA).
The immunostainings were examined using Olympus IX81 inverted research microscope and the software Volocity 5.3.1. To quantify the number of cells, five indiscriminately chosen visual fields per coverslip were selected under a focus of 40 times. The total number of cells (DAPI positive cells), the number of DCX positive, Map2ab positive, and DCX/Map2ab double positive cells was determined.

Q: Which “neurite branching/sprouting (branches per 100 μm of neurite length)” value ([1]; DMEM-KO, FIG. 4J) does the source give for COc1cc2c(c(O)c1C(=O)/C=C/c1ccc(O)cc1)C=CC(C)(C)O2 [Compound 1a, (E)-1-(5-hydroxy-7-methoxy-2,2-dimethyl-2H-chromen-6-yl)-3-(4-hydroxyphenyl)prop-2-en-1-one] here?
A: The value was “high density of branches/sprouts; also recorded: strongly increases neurite length and neurite branching; also recorded: dramatic increase in branching/sprouting”.

Q: And the “neurite length (DCX positive neurite profiles)” value ([1]; compared to control and RA+VPA, FIG. 4I)?
A: The value was “significant increase in neurite length; also recorded: strongly increases neurite length and neurite branching; also recorded: much longer neurites”.

Q: And the neurite extension [2]?
A: Its neurite extension is “strongly promote neurite extension; also recorded: promotes neurite extension to a similar degree as NGF; also recorded: almost in the range of NGF”.

Q: What about the “expression of the neuronal specific markers DCX and Map2ab (percentage of positive cells)” value ([3]; DMEM-KO medium, 10 and 100 μM, FIG. 2) of the same compound?
A: Its value is “elevated number of DCX positive and of MAP2ab positive cells; also recorded: enhances the expression of the neuronal specific markers DCX and Map2ab”.

Q: And the “number of DCX positive cells” value [3]?
A: The value was “most vigorous effect”.

Q: What about the “number of DCX/Map2ab double positive cells” value [3] of the same compound?
A: The value was “highest number of DCX and Map2ab double positive cells”.

Q: How did the “number of DCX positive cells” value [3] turn out when COc1cc2c(c(O)c1C(=O)/C=C/c1ccc(O)cc1)CCC(C)(C)O2 [Compound 1b, (E)-1-(5-hydroxy-7-methoxy-2,2-dimethylchroman-6-yl)-3-(4-hydroxyphenyl)prop-2-en-1-one] was run?
A: The value was “strongly enhanced the number of DCX positive cells”.

Q: And the “number of DCX/Map2ab double positive cells” value [3]?
A: The value was “highest number of DCX and Map2ab double positive cells”.
